{"source": "patent EP2735303A1", "about": "“Hair growth compositions and methods” (Pilosciences, priority 2012, dated 2014)", "key": {"human skin explants": {"test_system": "human skin explants", "assay": "Morphology of the hair follicle in human skin explants ex vivo after topical application (histology)", "assay_type": "cell-based", "set-up": "key to Upper part (quotation of morphological alterations) / Sebaceous gland (quotation of morphological alterations): -: no alteration; +: weak; ++: moderate; +++: significant; ++++: very significant; +++++: strong", "description": "Anti-HGP antibodies were produced (see example A) or obtained from commercially available sources, and investigated for their ability to inhibit body hair growth ex vivo using human skin explants.\nThe activity of the antibodies was assessed based on their effect on the morphology and growth of the body hair.\nThe activity of keratinase A (Sigma) was investigated in parallel. Eflornithin (Calbiochem) was used as a reference.\n40 explants of a diameter of about 11 mm (± 1 mm) were obtained by abdominoplasty from 2 men. The explants were placed in survival in the BEM (BIO-EC's Explants Medium) at 37° C in a humid atmosphere enriched with 5% CO2.\nThe treatment was performed at D0, D1, D4, D6 and D8 by topical application of 5 µl of diluted antibody used at final concentrations of 30 to 100 µg/mL in PBS. Eflornithin was used at a concentration of 100 mg/mL and keratinase at 20 mg/mL. A negative control experiment was performed using PBS only.\nAt D0, T0 lot explants were removed and cut in half. Half was fixed in buffered formalin and the other half was frozen at -80 ° C. A D8, 2 explants from each batch were taken and treated in the same manner.\nAfter 24 hours of fixation in buffered formalin, the samples were dried and impregnated with paraffin using an automatic dehydration Leica TP 1010 according to the procedure MO-H-149, according to our procedure using a station coating Leica EG 1160. Sections of 5 microns were performed, using a microtome kind Minot, Leica RM 2125 and mounted on silanized glass slides Superfrost ® plus. Microscopic observations were performed by microscopy optical transmission. The shots were taken with a Leica Orthoplan DMLB or with a digital camera Olympus DP72 driven software acquisition and archiving Olympus CellD. The morphology was examined on paraffin sections stained with Masson's trichrome Goldner variant."}, "[1]": {"test_system": "isolated human hair follicles", "assay": "Hair growth of isolated human hair follicles maintained in vitro (morphometric study)", "assay_type": "cell-based", "settings": "versus no application and Minoxidil 2% 10 µmol; application 2h00 at 37°C; length at D0, D4, D6, D8", "description": "Hair growth is measured using standard morphometric studies on isolated human hair follicles maintained in vitro (Philpott, 1999). Hair follicles are micro-dissected in a human scalp and maintained in a culture medium. Hair follicles in anagen phase are selected for the study. Each tested group is composed of 10-12 hair follicles."}}}
{"smiles": "NCCC[C@](N)(C(=O)O)C(F)F", "note": "[R1, α-difluoromethylornithine]", "values": [{"measurement": "Bulb: morphology", "setting": "human skin explants; D8, topical application", "value": "comparable to that observed in the untreated group D8"}, {"measurement": "Lower part of the hair follicle: morphology", "setting": "human skin explants; D8, topical application", "value": "very slight cell alterations"}, {"measurement": "Midsection, sebaceous glands: morphology of inner and outer root sheaths", "setting": "human skin explants; D8, topical application", "value": "clear cellular alterations"}, {"measurement": "Upper part, near the infundibulum: morphology of the epithelial sheaths", "setting": "human skin explants; D8, topical application", "value": "sharp cellular alterations"}, {"measurement": "morphology of the epidermis", "setting": "human skin explants; D8, topical application", "value": "slightly altered with a slight spongiosis"}, {"measurement": "Sebaceous gland (quotation of morphological alterations)", "setting": "human skin explants; sebaceous gland region of the hair follicle, topical application D0, D1, D4, D6, D8, antibodies 30 to 100 µg/mL in PBS, Eflornithin 100 mg/mL, keratinase 20 mg/mL, D8", "value": "++++"}, {"measurement": "Upper part (quotation of morphological alterations)", "setting": "human skin explants; upper part of the hair follicle near the infundibulum, topical application D0, D1, D4, D6, D8, antibodies 30 to 100 µg/mL in PBS, Eflornithin 100 mg/mL, keratinase 20 mg/mL, D8", "value": "++++"}, {"measurement": "Hair growth compared to Control Group 0 and to Control Group M", "setting": "[1]", "value": "significant hair growth retardation"}]}
